Source: patent US12172983B2, “EGFR inhibitors” (Blueprint Medicines Corporation, priority 2019, dated 2024)
Read-outs that look alike come from different tables or passages of the source.

Key:
[1] = system: phosphorylation of EGFR (Tyr1068) in NCI-H1975 cell line that harbors the EGFR L858R T790M mutations; assay: NCI-H1975 pEGFR AlphaLISA assay; assay type: cell-based; settings: 4-5 hours incubation, read-out: Ext pEGFR H1975
Method in brief: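 Phospho-EGFR Tyr1068 AlphaLISA readout: lysates taken from compound-treated H1975 cells (L858R T790M EGFR) after a 4-5 h exposure at 37 °C. Cells had adhered overnight beforehand. IC50 derived by plotting % pEGFR inhibition against log compound concentration.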

EGFR (L858R T790M C797S) = molecular target: T1, EGFR (L858R T790M C797S) (Homo sapiens, UniProt P00533, C797S/L858R/T790M); assay: Biochemical EGFR inhibition assay (Caliper mobility shift), EGFR LRTMCS mutant; settings: inhibitory activity against EGFR LRTMCS mutant; apparent IC50; read-out: Ext Enz LRTMCS
T1 construct: purchased SignalChem E10-122VG
Method in brief: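 Caliper mobility shift read-out: product and substrate peptides separated by electrophoresis and quantified. Reactions at 25° C. taken to 10–20% peptide phosphorylation, quenched with 35 mM EDTA. Apparent IC50 from percent activity vs log [compound].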

[2] = Homo sapiens, NCI-H1975, inhibition of phosphorylation of mutant EGFR in NCI-H1975 cells
[3] = inhibition of phosphorylation of mutant EGFR in NCI-H1975 cells

T1 sequence (P00533 25-1210 T790M/C797S/L858R): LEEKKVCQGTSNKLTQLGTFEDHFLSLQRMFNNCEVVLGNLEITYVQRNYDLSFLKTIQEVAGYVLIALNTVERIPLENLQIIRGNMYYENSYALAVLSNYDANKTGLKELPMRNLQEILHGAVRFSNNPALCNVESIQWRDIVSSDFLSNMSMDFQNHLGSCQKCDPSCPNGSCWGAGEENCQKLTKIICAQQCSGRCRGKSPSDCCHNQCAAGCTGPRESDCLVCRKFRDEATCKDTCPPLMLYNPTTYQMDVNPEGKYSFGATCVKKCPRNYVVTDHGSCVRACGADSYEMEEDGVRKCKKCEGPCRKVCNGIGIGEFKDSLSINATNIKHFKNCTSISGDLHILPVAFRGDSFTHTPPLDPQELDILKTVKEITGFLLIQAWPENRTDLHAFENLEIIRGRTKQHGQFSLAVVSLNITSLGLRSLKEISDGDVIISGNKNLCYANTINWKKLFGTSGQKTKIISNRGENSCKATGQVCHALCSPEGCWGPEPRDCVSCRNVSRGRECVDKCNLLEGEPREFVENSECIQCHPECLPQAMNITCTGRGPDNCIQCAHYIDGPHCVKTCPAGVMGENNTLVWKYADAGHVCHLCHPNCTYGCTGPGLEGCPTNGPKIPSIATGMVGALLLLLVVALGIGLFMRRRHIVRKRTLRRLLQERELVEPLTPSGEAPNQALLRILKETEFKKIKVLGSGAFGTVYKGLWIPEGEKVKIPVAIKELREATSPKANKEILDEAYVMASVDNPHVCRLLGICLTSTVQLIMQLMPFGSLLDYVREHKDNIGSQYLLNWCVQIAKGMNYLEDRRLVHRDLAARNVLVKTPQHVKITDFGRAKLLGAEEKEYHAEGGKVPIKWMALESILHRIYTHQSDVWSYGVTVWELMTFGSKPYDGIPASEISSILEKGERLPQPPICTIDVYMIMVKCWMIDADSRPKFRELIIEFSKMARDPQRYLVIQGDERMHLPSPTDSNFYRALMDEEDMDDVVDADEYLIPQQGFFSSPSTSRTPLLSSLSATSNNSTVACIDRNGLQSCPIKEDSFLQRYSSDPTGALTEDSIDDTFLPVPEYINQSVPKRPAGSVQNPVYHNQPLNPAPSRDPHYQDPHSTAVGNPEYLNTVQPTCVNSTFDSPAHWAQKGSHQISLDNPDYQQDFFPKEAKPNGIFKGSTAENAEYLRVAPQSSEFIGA

SMILES | IC50 [1, 2] | IC50 (EGFR (L858R T790M C797S)) | IC50 [1, 3]
CO[C@H]1CCN(c2nccc(Nc3cc4c(C(C)C)ncc(N5C[C@H](CS(C)(=O)=O)[C@H]5C)c4cn3)n2)C[C@@H]1O (single isomer, unassigned) [Compound 104, (3S,4S)-1-(4-(5-isopropyl-8-((2R,3S)-2-methyl-3-(methylsulfonylmethyl)azetidin-1-yl)-2,6-naphthyridin-3-ylamino)pyrimidin-2-yl)-4-methoxypiperidin-3-ol or (3R,4R)-1-(4-(5-isopropyl-8-((2R,3S)-2-methyl-3-(methylsulfonylmethyl)azetidin-1-yl)-2,6-naphthyridin-3-ylamino)pyrimidin-2-yl)-4-methoxypiperidin-3-ol] | 10.1 to 20 nM | ≤ 15 nM | 
CO[C@@H]1CCN(c2nccc(Nc3cc4c(C(C)C)cnc(N5C[C@H](CS(C)(=O)=O)[C@H]5C)c4cn3)n2)C[C@@H]1O (single isomer, unassigned) [Compound 105, (3S,4R)-1-[4-({8-[(2R,3S)-3-(methanesulfonylmethyl)-2-methylazetidin-1-yl]-5-(propan-2-yl)-2,7-naphthyridin-3-yl}amino)pyrimidin-2-yl]-4-methoxypiperidin-3-ol or (3R,4S)-1-[4-({8-[(2R,3S)-3-(methanesulfonylmethyl)-2-methylazetidin-1-yl]-5-(propan-2-yl)-2,7-naphthyridin-3-yl}amino)pyrimidin-2-yl]-4-methoxypiperidin-3-ol] | ≤ 10 nM | ≤ 15 nM | 
CO[C@H]1CCN(c2nccc(Nc3cc4c(C(C)C)cnc(N5C[C@H](CS(C)(=O)=O)[C@H]5C)c4cn3)n2)C[C@@H]1O (single isomer, unassigned) [Compound 106, (3S,4S)-1-[4-({8-[(2R,3S)-3-(methanesulfonylmethyl)-2-methylazetidin-1-yl]-5-(propan-2-yl)-2,7-naphthyridin-3-yl}amino)pyrimidin-2-yl]-4-methoxypiperidin-3-ol or (3R,4R)-1-[4-({8-[(2R,3S)-3-(methanesulfonylmethyl)-2-methylazetidin-1-yl]-5-(propan-2-yl)-2,7-naphthyridin-3-yl}amino)pyrimidin-2-yl]-4-methoxypiperidin-3-ol] | ≤ 10 nM | ≤ 15 nM | 
CO[C@H]1CCN(c2nccc(Nc3cc4c(C(C)C)cnc(N5CC(C[S@@](C)(=N)=O)[C@H]5C)c4cn3)n2)C[C@H]1F (single isomer, unassigned) [Compound 107, (1S)-(((2R)-1-(6-((2-((3R,4S)-3-fluoro-4-methoxypiperidin-1-yl)pyrimidin-4-yl)amino)-4-isopropyl-2,7-naphthyridin-1-yl)-2-methylazetidin-3-yl)methyl)(imino)(methyl)-λ^6-sulfanone or (1R)-(((2R)-1-(6-((2-((3R,4S)-3-fluoro-4-methoxypiperidin-1-yl)pyrimidin-4-yl)amino)-4-isopropyl-2,7-naphthyridin-1-yl)-2-methylazetidin-3-yl)methyl)(imino)(methyl)-λ^6-sulfanone] |  | ≤ 15 nM | 10.1 to 20 nM
CO[C@H]1CCN(c2nccc(Nc3cc4c(C(C)C)cnc(N5CC(C[S@@](C)(=N)=O)[C@H]5C)c4cn3)n2)C[C@H]1F (single isomer, unassigned) [Compound 108, (1S)-(((2R)-1-(6-((2-((3R,4S)-3-fluoro-4-methoxypiperidin-1-yl)pyrimidin-4-yl)amino)-4-isopropyl-2,7-naphthyridin-1-yl)-2-methylazetidin-3-yl)methyl)(imino)(methyl)-λ^6-sulfanone or (1R)-(((2R)-1-(6-((2-((3R,4S)-3-fluoro-4-methoxypiperidin-1-yl)pyrimidin-4-yl)amino)-4-isopropyl-2,7-naphthyridin-1-yl)-2-methylazetidin-3-yl)methyl)(imino)(methyl)-λ^6-sulfanone] |  | ≤ 15 nM | ≤ 10 nM
CCS(=O)(=O)CC1CN(c2ncc(C(C)C)c3cc(Nc4ccnc(N5CC[C@@H](O)[C@@](C)(F)C5)n4)ncc23)C1 (single isomer, unassigned) [Compound 124] | ≤ 10 nM | ≤ 15 nM | 
CC(C)c1cnc(N2CC([C@H](C)S(C)(=O)=O)C2)c2cnc(Nc3ccnc(N4CC[C@@H](O)[C@@](C)(F)C4)n3)cc12 (single isomer, unassigned) [Compound 126] | ≤ 10 nM | ≤ 15 nM | 
CC(C)c1cnc(N2CC([C@@H](C)S(C)(=O)=O)C2)c2cnc(Nc3ccnc(N4CC[C@@H](O)[C@@](C)(F)C4)n3)cc12 (single isomer, unassigned) [Compound 127] | ≤ 10 nM | ≤ 15 nM | 
CC(C)c1ncc(N2C[C@H](CS(C)(=O)=O)[C@H]2C)c2cnc(Nc3ccnc(N4CC[C@@H](O)[C@@](C)(F)C4)n3)cc12 (single isomer, unassigned) [Compound 129] | ≤ 10 nM | ≤ 15 nM | 
CC(C)c1ccc(N2C[C@H](CS(C)(=O)=O)[C@H]2C)c2cnc(Nc3cnnc(N4CC[C@@H](O)[C@@](C)(F)C4)n3)cc12 (single isomer, unassigned) [Compound 130] | ≤ 10 nM | ≤ 15 nM | 
CC(C)c1cnc(N2C[C@H](CS(C)(=O)=O)[C@H]2C)c2cnc(Nc3ccnc(N4CC[C@](C)(O)[C@H](F)C4)n3)cc12 (single isomer, unassigned) [Compound 135] | ≤ 10 nM | ≤ 15 nM | 
CC(C)c1ncc(N2C[C@H](CS(C)(=O)=O)[C@H]2C)c2cnc(Nc3ccnc(N4CC[C@](C)(O)[C@H](F)C4)n3)cc12 (single isomer, unassigned) [Compound 136] | 10.1 to 20 nM | ≤ 15 nM | 

Continued, values first:

IC50 [1, 2] | IC50 (EGFR (L858R T790M C797S)) | IC50 [1, 3] | SMILES
≤ 10 nM | ≤ 15 nM |  | CC(C)c1ccc(N2CC(CS(C)(=O)=O)C2)c2cnc(Nc3ccnc(N4C[C@H](F)[C@H](O)C(C)(C)C4)n3)cc12 (single isomer, unassigned) [Compound 109, (4S,5R)-5-fluoro-1-[4-({8-[3-(methanesulfonylmethyl)azetidin-1-yl]-5-(propan-2-yl)isoquinolin-3-yl}amino)pyrimidin-2-yl]-3,3-dimethylpiperidin-4-ol or (4R,5S)-5-fluoro-1-[4-({8-[3-(methanesulfonylmethyl)azetidin-1-yl]-5-(propan-2-yl)isoquinolin-3-yl}amino)pyrimidin-2-yl]-3,3-dimethylpiperidin-4-ol]
≤ 10 nM | ≤ 15 nM |  | CCS(=O)(=O)CC1CN(c2ccc(C(C)C)c3cc(Nc4ccnc(N5CC[C@@H](O)[C@@](C)(F)C5)n4)ncc23)C1 (single isomer, unassigned) [Compound 110]
10.1 to 20 nM | ≤ 15 nM |  | CC(C)c1ccc(N2CC(C)(CS(C)(=O)=O)C2)c2cnc(Nc3ccnc(N4CC[C@@H](O)[C@@](C)(F)C4)n3)cc12 (single isomer, unassigned) [Compound 112]
10.1 to 20 nM | ≤ 15 nM |  | CC(C)c1ccc(N2CC(CS(C)(=O)=O)C2)c2cnc(Nc3ccnc(N4CC[C@](C)(O)[C@](C)(F)C4)n3)cc12 (single isomer, unassigned) [Compound 113, (3R,4S)-3-fluoro-1-[4-({8-[3-(methanesulfonylmethyl)azetidin-1-yl]-5-(propan-2-yl)isoquinolin-3-yl}amino)pyrimidin-2-yl]-3,4-dimethylpiperidin-4-ol or (3S,4R)-3-fluoro-1-[4-({8-[3-(methanesulfonylmethyl)azetidin-1-yl]-5-(propan-2-yl)isoquinolin-3-yl}amino)pyrimidin-2-yl]-3,4-dimethylpiperidin-4-ol]
30.1 to 50 nM | 30.1 to 100 nM |  | CC(C)c1ccc(N2CC(CS(C)(=O)=O)C2)c2cnc(Nc3ccnc(N4CC[C@](C)(O)[C@@](C)(F)C4)n3)cc12 (single isomer, unassigned) [Compound 114, (3S,4S)-3-fluoro-1-[4-({8-[3-(methanesulfonylmethyl)azetidin-1-yl]-5-(propan-2-yl)isoquinolin-3-yl}amino)pyrimidin-2-yl]-3,4-dimethylpiperidin-4-ol or (3R,4R)-3-fluoro-1-[4-({8-[3-(methanesulfonylmethyl)azetidin-1-yl]-5-(propan-2-yl)isoquinolin-3-yl}amino)pyrimidin-2-yl]-3,4-dimethylpiperidin-4-ol]
≤ 10 nM | ≤ 15 nM |  | CC[C@]1(F)CN(c2nccc(Nc3cc4c(C(C)C)ccc(N5CC(CS(C)(=O)=O)C5)c4cn3)n2)CC[C@H]1O (single isomer, unassigned) [Compound 115, (3S,4R)-3-ethyl-3-fluoro-1-[4-({8-[3-(methanesulfonylmethyl)azetidin-1-yl]-5-(propan-2-yl)isoquinolin-3-yl}amino)pyrimidin-2-yl]piperidin-4-ol or (3R,4S)-3-ethyl-3-fluoro-1-[4-({8-[3-(methanesulfonylmethyl)azetidin-1-yl]-5-(propan-2-yl)isoquinolin-3-yl}amino)pyrimidin-2-yl]piperidin-4-ol]
10.1 to 20 nM | ≤ 15 nM |  | Cc1cc(C(C)C)c2cc(Nc3ccnc(N4CC[C@@H](O)[C@@](C)(F)C4)n3)ncc2c1N1CC(CS(C)(=O)=O)C1 (single isomer, unassigned) [Compound 116]
≤ 10 nM | 15.1 to 20 nM |  | CC(C)c1ccc(N2C[C@@H](CS(C)(=O)=O)[C@H]2C)c2cnc(Nc3ccnc(N4CC[C@](C)(O)[C@H](F)C4)n3)cc12 (single isomer, unassigned) [Compound 121]
≤ 10 nM | ≤ 15 nM |  | CC(C)c1cnc(N2C[C@H](CS(C)(=O)=O)[C@H]2C)c2cnc(Nc3ccnc(N4CC[C@@](C)(O)[C@@H](F)C4)n3)cc12 (single isomer, unassigned) [Compound 137]
